For assay [1], the target named is T1, CCK receptor (pancreas) (Rattus norvegicus, UniProt P30551).
T1 construct: The whole pancreas of a male Sprague-Dawley rat; from tissue; host or cells: whole pancreas of male Sprague-Dawley rat, washed membrane homogenate
T1 sequence (P30551 1-444): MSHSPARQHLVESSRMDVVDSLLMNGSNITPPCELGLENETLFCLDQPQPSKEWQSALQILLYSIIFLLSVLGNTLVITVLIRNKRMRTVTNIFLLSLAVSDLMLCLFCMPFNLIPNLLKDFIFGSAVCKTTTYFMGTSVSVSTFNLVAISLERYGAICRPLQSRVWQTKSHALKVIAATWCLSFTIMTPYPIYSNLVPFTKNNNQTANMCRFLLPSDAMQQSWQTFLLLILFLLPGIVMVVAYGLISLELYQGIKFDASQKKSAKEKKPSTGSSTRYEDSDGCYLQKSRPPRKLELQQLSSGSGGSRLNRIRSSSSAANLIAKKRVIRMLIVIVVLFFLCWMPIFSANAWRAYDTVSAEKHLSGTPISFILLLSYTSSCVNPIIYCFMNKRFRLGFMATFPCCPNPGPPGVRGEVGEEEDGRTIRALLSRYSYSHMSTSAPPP
Briefly: CCK receptor binding (pancreas) method. More on the design: species or system Sprague-Dawley rat. To be noted: rat pancreas membranes, 37° C., 30 minutes; read-out: I-CCK-8 Pancreas IC50. On the procedure: (§1) Screening of the novel compounds according to the present invention to determine biological activity and obtain an IC50 value for them, in order to identify significant CCK-antagonism, may be accomplished using an ^125 I-CCK receptor binding assay and in vitro isolated tissue preparations. These tests involve the following:
CCK receptor binding (pancreas) method
[…] (J. Biol. Chem., 254, 9349-9351, 1979). Receptor binding is performed according to Innis and Snyder (Proc. Natl. Acad. Sci., 77, 6917-6921, 1980), with the minor modification of adding the additional protease inhibitors, phenyl-methane sulfonyl fluoride and o-phenanthroline, which have no effect on the ^125 I-CCK receptor binding assay.
The whole pancreas of a male Sprague-Dawley rat (200-350 g), which has been sacrificed by decapitation, is dissected free of fat tissue and homogenized in 20 volumes of ice-cold 50 mM Tris HCl (pH 7.7 at 25° C.) with a Brinkman Polytron PT-10. The homogenates are centrifuged at 48,000 g for 10 minutes, then the resulting pellets are resuspended in Tris Buffer, centrifuged as above, and resuspended in 200 volumes of binding assay buffer (50 mM Tris HCl, pH 7.7 at 25° C., 5 mM dithiothreitol, 0.1 mM bacitracin, 1.2 mM phenylmethane sulfonyl fluoride and 0.5 mM o-phenanthroline).
For the binding assay, 25 μl of buffer (for total binding), or unlabeled CCK-8 sulfate sufficient to give a final concentration of 1 μM of CCK-8 (for nonspecific binding), or the compounds of the formula of the compounds according to the instant invention ([…]), are added to 450 μl of the membrane suspensions in microfuge tubes. All assays are run in duplicate or triplicate, and the reaction mixtures are incubated at 37° C. for 30 minutes and centrifuged in a Beckman Microfuge (4 minutes) immediately after adding 1 ml of ice-cold incubation buffer. The supernatant is aspirated and discarded, and the pellets are counted with a Beckman Gamma 5000.

The next assay deals with T2, CCK receptor (brain) (Cavia porcellus, UniProt H0VZC5).
T2 construct: The cerebral cortex is dissected and used as a receptor source; from tissue; host or cells: cerebral cortex of male Hartley guinea pig, membrane homogenate
T2 sequence (H0VZC5 1-426): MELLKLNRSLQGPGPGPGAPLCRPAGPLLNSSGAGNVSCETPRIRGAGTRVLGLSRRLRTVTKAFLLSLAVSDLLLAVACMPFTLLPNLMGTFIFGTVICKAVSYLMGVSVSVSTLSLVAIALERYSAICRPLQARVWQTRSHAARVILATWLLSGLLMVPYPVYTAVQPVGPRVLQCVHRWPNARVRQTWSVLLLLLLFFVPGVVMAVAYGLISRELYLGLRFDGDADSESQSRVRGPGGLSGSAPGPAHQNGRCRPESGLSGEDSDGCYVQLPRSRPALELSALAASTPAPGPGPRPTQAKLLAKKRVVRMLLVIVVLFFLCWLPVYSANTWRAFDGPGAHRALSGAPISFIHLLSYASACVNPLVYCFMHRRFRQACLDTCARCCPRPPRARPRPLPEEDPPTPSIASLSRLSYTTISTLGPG
Briefly: CCK receptor binding (brain) method. Details: species or system Hartley guinea pig. To be noted: guinea pig cerebral cortex, 25° C., 2 hours; read-out: ^125 I-CCK Brain IC50. On the procedure:
as §1
CCK receptor binding (brain) method
CCK-33 is radiolabeled and the binding is performed according to the description for the pancreas method, with modifications according to Saito et al., J. Neurochem., 37, 483-490, 1981.
Male Hartley guinea pigs (300-500 g) are sacrificed by decapitation, and the brains are removed and placed in ice-cold 50 mM Tris HCl (Trizma-7.4) [pH 7.4 at 25° C.]. The cerebral cortex is dissected and used as a receptor source and each gram of fresh guinea pig brain tissue is homogenized in 10 ml of Tris/Trizma buffer with a Brinkman polytron PT-10. The homogenates are centrifuged at 42,000 g for 15 minutes, then the resulting pellets are resuspended in 80 volumes of binding assay buffer (10 mM N-2-hydroxy-ethylpiperazine-N'-2-ethanesulfonic acid (HEPES), 5 mM MgCl2, 1 mM ethylene glycol-bis-(β-amino-ethyl-ether-N,N'-tetraacetic acid (EGTA), 0.4% BSA and 0.25 mg/ml bacitracin, pH 6.5).
The remainder of the binding assay method is as described for the pancreas method, except that the reaction mixtures are incubated at 25° C. for 2 hours before centrifugation.

Assay [2] deals with cholecystokinins in the gut. To be noted: prior compound; cited from earlier work.
In assay [3] the target is T1, CCK receptor (pancreas). To be noted: prior compound, U.S. Pat. No. 4,530,790; cited from earlier work.
A further assay concerns CCK receptor. Conditions: structure-function studies; cited from earlier work.

Read-outs that look alike come from different tables or passages of the source.

In general, IC50 refers to the midpoint of a concentration-inhibition curve.

Take `CC(C)C[C@@H](NC(=O)OC(C)(C)C)C(=O)N1CC(C[C@@H]2NC(=O)c3ccccc3-n3c2nc2ccccc2c3=O)c2ccccc21` (single isomer, unassigned; isomer 1) [Example 6]: the IC50 on CCK receptor (pancreas) [1] is 16.5 µM; on CCK receptor (brain), greater than 100 µM.

As to `CC(C)C[C@@H](NC(=O)OC(C)(C)C)C(=O)N1CC(C[C@@H]2NC(=O)c3ccccc3N3C(=O)c4ccccc4NC23)c2ccccc21` (single isomer, unassigned; isomer 1) [Example 8], the half-maximal inhibitory concentration (IC50) on CCK receptor (pancreas) [1] turned out to be 49 µM; at CCK receptor (brain), 15 µM. Take `CC(C)C[C@@H](NC(=O)OC(C)(C)C)C(=O)N1CC(C[C@@H]2NC(=O)c3ccccc3-n3c2nc2ccccc2c3=O)c2ccccc21` (single isomer, unassigned; isomer 2) [Example 7]: the IC50 on CCK receptor (pancreas) [1] and at CCK receptor (brain) was greater than 100 µM each time. `CC(C)C[C@@H](NC(=O)OC(C)(C)C)C(=O)N1CC(C[C@@H]2NC(=O)c3ccccc3N3C(=O)c4ccccc4NC23)c2ccccc21` (single isomer, unassigned; isomer 2) [Example 9]: the IC50 was found to be 34 µM on CCK receptor (pancreas) [1] and 100 µM on CCK receptor (brain). Regarding `O=C1N[C@@H](Cc2c[nH]c3ccccc23)c2nc3ccccc3c(=O)n2-c2ccccc21` [7β-[(1H-indol-3-yl)methyl]quinazolino(3,2-A) (1,4)benzodiazepin-5,13(6H,7H)dione], the “selectivity in inhibiting the function of cholecystokinins” value in assay [2] is given as “selective in inhibiting the function of cholecystokinins in the gut”. Also, the concentration for half-maximal inhibition (IC50) at CCK receptor (pancreas) [3] was 26 µM. Consider `O=C1N[C@@H](Cc2c[nH]c3ccccc23)C2Nc3ccccc3C(=O)N2c2ccccc21` (some centres unmarked) [Example 1, 7,7A-dihydro-7-(1H-indol-3-yl)methylquinazolino(3,2-B)-1,4-benzodiazepin-5,13-(6H,9H)-dione monohydrate], for which the values for the IC50 on CCK receptor (pancreas) [1] and on CCK receptor (brain) were 12 µM and greater than 100 µM, respectively. In the case of `O=C1N[C@@H](CC2CNc3ccccc32)c2nc3ccccc3c(=O)n2-c2ccccc21` (some centres unmarked) [Example 2, 7-[(2,3-dihydro-1H-indol-3-yl)methyl]-quinazolino(3,2-A)-1,4-benzodiazepin-5,13-(6H,7H)-dione hemihydrate], the values for the IC50 at CCK receptor (pancreas) [1] and on CCK receptor (brain) were 27 µM and greater than 100 µM, respectively.

For `CC(C)C[C@H](NC(=O)OC(C)(C)C)C(=O)n1cc(C[C@@H]2NC(=O)c3ccccc3-n3c2nc2ccccc2c3=O)c2ccccc21` [Example 3, 7-[(1-[2(S)-((1,1-dimethylethoxy)-carbonyl)amino-4-methylpentanoyl]-1H-indol-3-yl)methyl]quinazolino(3,2-A)-1,4-benzodiazepin-5,13-(6H,7H)-dione sesquihydrate], the concentration for half-maximal inhibition (IC50) on CCK receptor (pancreas) [1] and at CCK receptor (brain) was greater than 100 µM each time. As to `CC(C)C[C@H](NC(=O)OC(C)(C)C)C(=O)N1CC(C[C@@H]2NC(=O)c3ccccc3-n3c2nc2ccccc2c3=O)c2ccccc21` (stereo partly drawn) [Example 4, 7-[(1-[2(S)-((1,1-dimethylethoxy)carbonyl)amino-4-methylpentanoyl]-2,3-dihydro-1H-indol-3-yl)methyl]quinazolino(3,2-A)-1,4-benzodiazepin-5,13-(6H,7H)-dione hemihydrate], the 50% inhibitory concentration (IC50) on CCK receptor (pancreas) [1] was 3.4 µM; at CCK receptor (brain) it was greater than 100 µM. In the same order, the values of `CC(C)C[C@H](NC(=O)OC(C)(C)C)C(=O)N1CC(C[C@@H]2NC(=O)c3ccccc3N3C(=O)c4ccccc4NC23)c2ccccc21` (stereo partly drawn) [Example 5, 7-[(1-[2(S)-((1,1-dimethylethoxy)carbonyl)amino-4-methylpentanoyl]-2,3-dihydro-1H-indol-3-yl)methyl]quinazolino(3,2-A)-1,4-benzodiazepin-5,13-(5H,7H)-dione hydrate] are 19.2 µM and greater than 100 µM. For `CC(C)C[C@H](NC(=O)OCc1ccccc1)C(=O)n1cc(C[C@@H]2NC(=O)c3ccccc3-n3c2nc2ccccc2c3=O)c2ccccc21` [Example 10, 7-[(1-[2(S)-phenylmethoxycarbonylamino-4-methylpentanoyl]-1H-indol-3-yl)methyl]quinazolino-(3,2-B)-1,4-benzodiazepin-5,13-(6H,7H)-dione], in that order: greater than 100 µM and greater than 100 µM. For the molecule `CCCC(=O)Nc1nc2c(ncn2[C@@H]2O[C@@H]3COP(=O)(O)O[C@H]3[C@H]2OC(=O)CCC)c(=O)[nH]1` [dibutyryl cyclic GMP], the “CCK-receptor antagonist potency within derivatives of cyclic nucleotides” value in the assay with CCK receptor was “most potent”.

Source of the values: patent US4559339A, “Indol-3-yl-quinazolino-1,4-benzodiazepin-5,13-diones” (Merck & Co., Inc., priority 1985, dated 1985).
